Measured values reported in ChEMBL document CHEMBL2074018, “Digoxin up-regulates multidrug resistance transporter (MDR1) mRNA and simultaneously down-regulates steroid xenobiotic receptor mRNA” (Biochem Biophys Res Commun, 2003).

Biological target: ATP-dependent translocase ABCB1 (Homo sapiens, UniProt P08183)
Assay: TP_TRANSPORTER: up-regulation of MDR1 mRNA in Caco-2 cells
Format: functional, cell-based

ATP-dependent translocase ABCB1, sequence (P08183 whole entry): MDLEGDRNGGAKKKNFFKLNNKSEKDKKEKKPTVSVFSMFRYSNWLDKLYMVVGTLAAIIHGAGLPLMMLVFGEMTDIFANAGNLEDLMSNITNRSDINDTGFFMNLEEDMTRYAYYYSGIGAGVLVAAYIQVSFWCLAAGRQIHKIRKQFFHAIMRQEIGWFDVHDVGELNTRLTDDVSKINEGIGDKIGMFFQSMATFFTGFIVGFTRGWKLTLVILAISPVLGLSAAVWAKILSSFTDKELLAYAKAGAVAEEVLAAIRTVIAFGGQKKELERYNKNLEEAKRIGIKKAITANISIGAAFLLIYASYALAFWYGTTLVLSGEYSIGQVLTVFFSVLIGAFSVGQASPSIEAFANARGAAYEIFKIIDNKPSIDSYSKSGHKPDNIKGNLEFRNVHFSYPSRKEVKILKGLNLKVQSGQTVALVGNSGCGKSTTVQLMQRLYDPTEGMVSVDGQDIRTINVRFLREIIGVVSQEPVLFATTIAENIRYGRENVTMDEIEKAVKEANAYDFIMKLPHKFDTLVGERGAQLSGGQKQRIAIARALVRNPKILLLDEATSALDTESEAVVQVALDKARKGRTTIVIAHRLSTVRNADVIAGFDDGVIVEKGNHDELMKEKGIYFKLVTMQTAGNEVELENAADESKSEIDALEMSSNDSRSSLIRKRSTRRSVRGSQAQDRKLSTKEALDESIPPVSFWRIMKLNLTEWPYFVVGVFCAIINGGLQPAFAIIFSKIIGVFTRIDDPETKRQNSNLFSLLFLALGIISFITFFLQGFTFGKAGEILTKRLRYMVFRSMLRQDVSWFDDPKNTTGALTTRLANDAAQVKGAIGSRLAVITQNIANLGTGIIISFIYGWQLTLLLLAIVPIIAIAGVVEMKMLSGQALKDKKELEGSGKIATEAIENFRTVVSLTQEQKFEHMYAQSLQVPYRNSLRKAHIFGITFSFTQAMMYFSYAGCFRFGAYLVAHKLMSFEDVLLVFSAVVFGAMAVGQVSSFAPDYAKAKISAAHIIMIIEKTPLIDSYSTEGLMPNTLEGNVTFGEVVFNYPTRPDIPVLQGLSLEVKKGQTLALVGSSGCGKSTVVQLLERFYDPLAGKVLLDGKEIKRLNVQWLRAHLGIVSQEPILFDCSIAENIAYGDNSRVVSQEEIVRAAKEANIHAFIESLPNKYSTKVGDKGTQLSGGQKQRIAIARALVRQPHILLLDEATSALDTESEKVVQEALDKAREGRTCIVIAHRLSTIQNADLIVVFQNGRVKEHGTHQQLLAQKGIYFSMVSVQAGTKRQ

C[C@H]1O[C@@H](O[C@H]2[C@@H](O)C[C@H](O[C@H]3[C@@H](O)C[C@H](O[C@H]4CC[C@@]5(C)[C@H](CC[C@@H]6[C@@H]5C[C@@H](O)[C@]5(C)[C@@H](C7=CC(=O)OC7)CC[C@]65O)C4)O[C@@H]3C)O[C@@H]2C)C[C@H](O)[C@@H]1O [DIGOXIN]
Activity: inducer [+]
